In paper PMC8619920, “New Polyesterified Ursane Derivatives from Leaves of Maesa membranacea and Their Cytotoxic Activity” (Molecules, 2021):

Columns and labels:
Format in all cases: cell-based
[1] = system: DU145 human prostate carcinoma cells; assay: Cytotoxicity, LDH assay, DU145 cells; settings: Homo sapiens, DU-145, 24 h, 24 h treatment, 5–100 μg/mL
Method: (§1) Cytotoxic activity was tested on human cancer and normal cells, grouped in three panels, namely: prostate, skin and gastrointestinal. The prostate panel consisted of prostate cancer cell lines Du145 (ATCC HTB-81) and PC3 (ATCC CRL-1435), and prostate epithelial cells PNT-2 (ECACC 95012613). Melanoma cell lines A375 (ATCC CRL-1619) and HTB140 (ATCC Hs 294T) together with skin keratinocytes HaCaT (obtained as a kind gift of prof. Marta Michalik, Department of Cell Biology, Jagiellonian University, Kraków, Poland) were included into the skin panel. The gastrointestinal panel of cells comprised colon cancer cell lines Caco-2 (ATCC HTB-37) and HT29 (ATCC HTB-38). Du145 cells were grown in Modified Eagle’s Medium with low (1.0 g/L) glucose concentration, HT29, PC3 and PNT-2 cells in Dulbecco’s Modified Eagle’s Media: F12 HAM Nutrient Mixture, Caco-2 in Modified Eagle’s Medium with NEAA (no-essential amino acids) while melanoma cells and keratinocytes were maintained in Modified Eagle’s Medium with high (4.5 g/L) glucose concentration. The culture media (all supplied by Sigma-Aldrich Co.; St. Louis, MO, USA) contained antibiotics and 10% fetal bovine serum (FBS). All cultures were maintained at 37 °C, in a humidified, 5% CO2 containing, atmosphere.
(§2) The examined triterpenes were diluted in the culture media from freshly made stock solutions in MeOH (10 mg/mL) to the working concentrations (from 0 to 100 μg/mL).
(§3) Cell viability was determined as it was described previously. Cells suspended in the nutrient medium were transferred into 96-well microtiter plates (density 1.5 × 10^4 per well), and preincubated for 24 h (37 °C, 5% CO2). Then, the culture medium was replaced with the medium containing different concentrations of 1 or 2 (1–100 μg/mL). After 24 h of incubation, viability of the cells was determined using colorimetric lactate dehydrogenase (LDH) assay, in comparison to the controls to which corresponding aliquots of MeOH diluted with culture media were added. Cells grown in the medium without the tested compounds were used as control I (negative) and the positive control (control II) was obtained by incubation of the cells in the medium containing 1% Triton X-100. LDH released from the damaged cells into the cell culture medium was quantified by measuring the absorbance at 490 nm using Synergy II Biotek (BioTek Instruments, Winooski, VT, USA) microplate reader. Cytotoxicities of the examined compounds were calculated as follows: [(absorbance of the tested sample − absorbance of control I)/(absorbance of control II − absorbance of control I)] × 100. Results were means of three independent measurements (± SD). Doxorubicin (Ebewe Pharma GmbH., Unterach, Austria) was used as a reference cytostatic drug. The IC50 values were determined by plotting the percentage viability of the cells versus concentration and the adequate calculations made using AAT Bioquest website program (https://www.aatbio.com/tools/ic50-calculator, accessed on 29 October 2021).

[2] = system: PNT-2 human normal prostate epithelium cells; assay: Cytotoxicity, LDH assay, PNT-2 cells; settings: Homo sapiens, PNT2; 24 h treatment, 5–100 μg/mL
Method: as §1, §2, §3

[3] = system: HT29 human colon adenocarcinoma cells; assay: Cytotoxicity, LDH assay, HT29 cells; settings: Homo sapiens, HT-29; 24 h treatment, 5–100 μg/mL
Method: as §1, §2, §3

[4] = system: A375 human malignant melanoma cells; assay: Cytotoxicity, LDH assay, A375 cells; settings: Homo sapiens, A-375; 24 h treatment, 5–100 μg/mL
Method: as §1, §2, §3

[5] = system: Caco-2 human colon adenocarcinoma cells; assay: Cytotoxicity, LDH assay, Caco-2 cells; settings: Homo sapiens, Caco-2, 24 h, 24 h treatment, 5–100 μg/mL
Method: as §1, §2, §3

[6] = system: PC3 human prostate adenocarcinoma cells; assay: Cytotoxicity, LDH assay, PC3 cells; settings: Homo sapiens, PC-3, 24 h, 24 h treatment, 5–100 μg/mL
Method: as §1, §2, §3

With `COc1cccc2c1C(=O)c1c(O)c3c(c(O)c1C2=O)C[C@@](O)(C(=O)CO)C[C@@H]3O[C@H]1C[C@H](N)[C@H](O)[C@H](C)O1` [Doxorubicin, reference compound] the IC50 [1] was 3.18 µg/mL, the IC50 [2] was 1.38 µg/mL and the IC50 [3] was 1.53 µg/mL. For the same compound, the IC50 [4] was 0.59 µg/mL, the IC50 [5] was 3.44 µg/mL and the IC50 [6] was greater than 50 µg/mL.
